Laboratory results reported in patent US9776979B2, “EBI2 modulators” (Sanford-Burnham Medical Research Institute, priority 2013, dated 2017).
Like-named read-outs stand apart in the source and are kept apart here.

Biological target: EBI2 (Homo sapiens, UniProt P32249)
Experiment: Cell-based luminescent assay (EBI2 modulation)
Method in brief: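 Cells plated overnight at 37° C, then exposed to compound at 4-5 uM final with 80 nM 7a,25-OHC agonist for 60 min at 37° C. Luminescence read after 60 min detection at 25° C in the dark; values normalized to neutral and stimulator controls and plate-pattern corrected.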

[1] = cell-based luminescence, 7a,25-OHC final assay concentration 80 nM, 60 minutes incubation, read-out: IC50

Sequence of EBI2 (P32249 whole entry): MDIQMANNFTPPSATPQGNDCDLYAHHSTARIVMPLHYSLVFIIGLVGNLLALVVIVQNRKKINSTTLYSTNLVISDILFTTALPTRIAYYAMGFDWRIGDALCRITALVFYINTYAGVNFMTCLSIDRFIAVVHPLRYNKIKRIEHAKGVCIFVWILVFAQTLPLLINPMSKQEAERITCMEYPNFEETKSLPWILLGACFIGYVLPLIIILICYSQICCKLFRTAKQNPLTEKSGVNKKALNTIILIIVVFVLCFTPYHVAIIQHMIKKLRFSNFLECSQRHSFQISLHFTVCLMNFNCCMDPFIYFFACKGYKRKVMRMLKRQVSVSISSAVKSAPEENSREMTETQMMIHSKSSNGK

SMILES | IC50 [1] [nM] | IC50 [nM]
O=C(C#Cc1ccc(Cl)cc1)N1CCN(Cc2ccc(F)cc2C(F)(F)F)CC1 [Compound C435, 3-(4-chlorophenyl)-1-(4-{[4-fluoro-2-(trifluoromethyl)phenyl]methyl}piperazinyl)prop-2-yn-1-one] | 100 to 500 | –
O=C(c1cc(Br)c[nH]1)N1CCN(C(c2ccccc2)c2ccccc2)CC1 [Compound C436, 4-(diphenylmethyl)piperazinyl 4-bromopyrrol-2-yl ketone] | 100 to 500 | –
O=C(C#Cc1ccc(Cl)c(Cl)c1)N1CCN(C(=O)c2ccc(F)cc2C(F)(F)F)CC1 [Compound C437, 3-(3,4-dichlorophenyl)-1-(4-{[4-fluoro-2-(trifluoromethyl)phenyl]carbonyl}piperazinyl)prop-2-yn-1-one] | 100 to 500 | –
O=C(/C=C/c1ccc(Cl)cc1F)N1CCN(S(=O)(=O)c2ccccc2)CC1 [Compound C439, (2E)-3-(4-chloro-2-fluorophenyl)-1-[4-(phenylsulfonyl)piperazinyl]prop-2-en-1-one] | 100 to 500 | –
O=C(c1cccc(B(O)O)c1)N1CCN(C(=O)c2cc3cc(Cl)ccc3[nH]2)CC1 [Compound C440, 3-(4-(5-chloro-1H-indole-2-carbonyl)piperazine-1-carbonyl)phenylboronic acid] | 100 to 500 | –
O=C(/C=C/c1cc(Br)ccc1F)N1CCN(C(c2ccccc2)c2ccccc2)CC1 [Compound C441, (2E)-1-[4-(diphenylmethyl)piperazinyl]-3-(5-bromo-2-fluorophenyl)prop-2-en-1-one] | 100 to 500 | –
Cc1ccccc1/C=C/C(=O)N1CCN(S(=O)(=O)c2ccc(Br)cc2)CC1 [Compound C442, (2E)-1-{4-[(4-bromophenyl)sulfonyl]piperazinyl}-3-(2-methylphenyl)prop-2-en-1-one] | 100 to 500 | –
O=C(c1cc2ccc(Cl)cc2[nH]1)N1CCN(C(=O)c2ccc(F)cc2C(F)(F)F)CC1 [Compound C447, 6-chloroindol-2-yl 4-{[4-fluoro-2-(trifluoromethyl)phenyl]carbonyl}piperazinyl ketone] | 100 to 500 | –
CC(C)(C)c1ccc(S(=O)(=O)N2CCN(C(=O)/C=C/c3ccc(Cl)cc3F)CC2)cc1 [Compound C448, (2E)-1-(4-{[4-(tert-butyl)phenyl]sulfonyl}piperazinyl)-3-(4-chloro-2-fluorophenyl)prop-2-en-1-one] | 100 to 500 | –
O=C(c1cc2cc(Cl)ccc2[nH]1)N1CCC(NC2CCCC2)CC1 [Compound C449, 5-chloroindol-2-yl 4-(cyclopentylamino)piperidyl ketone] | 100 to 500 | –
O=C(Nc1ccc(F)c(C(F)(F)F)c1)N1CCN(C(=O)c2cc3cc(Cl)ccc3[nH]2)CC1 [Compound C450, {4-[(5-chloroindol-2-yl)carbonyl]piperazinyl}-N-[4-fluoro-3-(trifluoromethyl)phenyl]carboxamide] | 100 to 500 | –
O=C(Nc1cccc(F)c1)N1CCN(C(=O)c2cc3cc(Cl)ccc3[nH]2)CC1 [Compound C451, {4-[(5-chloroindol-2-yl)carbonyl]piperazinyl}-N-(3-fluorophenyl)carboxamide] | 100 to 500 | –
O=C(c1cc2ccccc2o1)N1CCN(Cc2ccc3c(c2)OCO3)CC1 [Compound C452, 4-(2H-benzo[d]1,3-dioxolan-5-ylmethyl)piperazinyl benzo[d]furan-2-yl ketone] | 100 to 500 | –
Cc1ccc(/C=C/C(=O)N2CCN(C(c3ccccc3)c3ccccc3)CC2)cc1 [Compound C453, (2E)-1-[4-(diphenylmethyl)piperazinyl]-3-(4-methylphenyl)prop-2-en-1-one] | 100 to 500 | –
O=C(c1cc2cc(Cl)ccc2[nH]1)N1CCN(S(=O)(=O)c2ccc(-c3ccccc3)cc2)CC1 [Compound C454, 5-chloroindol-2-yl 4-[(4-phenylphenyl)sulfonyl]piperazinyl ketone] | 100 to 500 | –
O=C(/C=C/c1ccccc1F)N1CCN(S(=O)(=O)c2ccc(Br)cc2)CC1 [Compound C455, (2E)-1-{4-[(4-bromophenyl)sulfonyl]piperazinyl}-3-(2-fluorophenyl)prop-2-en-1-one] | 100 to 500 | –
O=C(Nc1ccc(C(F)(F)F)cc1)N1CCN(C(=O)c2cc3cc(Cl)ccc3[nH]2)CC1 [Compound C456, {4-[(5-chloroindol-2-yl)carbonyl]piperazinyl}-N-[4-(trifluoromethyl)phenyl]carboxamide] | 100 to 500 | –
O=C(C=Cc1ccc2c(c1)OCO2)N1CCN(C(=O)c2ccc(-c3nnn[nH]3)cc2)CC1 [Compound C457, 3-(2H-benzo[3,4-d]1,3-dioxolan-5-yl)-1-{4-[(4-(1H-1,2,3,4-tetraazol-5-yl)phenyl)carbonyl]piperazinyl}prop-2-en-1-one] | 100 to 500 | –
O=C(O)c1ccc(C(=O)N2CCN(C(=O)c3cc4cc(Cl)ccc4[nH]3)CC2)cc1 [Compound C460, 4-({4-[(5-chloroindol-2-yl)carbonyl]piperazinyl}carbonyl)benzoic acid] | 100 to 500 | –
O=C(C#Cc1ccc(F)cc1)N1CCN(Cc2ccc(Cl)cc2)CC1 [Compound C461, 1-{4-[(4-chlorophenyl)methyl]piperazinyl}-3-(4-fluorophenyl)prop-2-yn-1-one] | 100 to 500 | –

SMILES | IC50 [1] [nM] | IC50 [nM]
O=C(C=Cc1ccc2c(c1)OCO2)N1CCN(Cc2ccc(F)cc2)CC1 [Compound C463, 3-(2H-benzo[3,4-d]1,3-dioxolan-5-yl)-1-{4-[(4-fluorophenyl)methyl]piperazinyl}prop-2-en-1-one] | 100 to 500 | –
O=C(c1cnc2ccccc2c1)N1CCN(Cc2ccc(Cl)cc2)CC1 [Compound C464, 4-[(4-chlorophenyl)methyl]piperazinyl 3-quinolyl ketone] | 100 to 500 | –
Cc1nc2ccc(C(=O)N3CCN(C(c4ccccc4)c4ccccc4)CC3)cc2[nH]1 [Compound C465, 4-(diphenylmethyl)piperazinyl 2-methylbenzimidazol-5-yl ketone] | 100 to 500 | –
O=C(c1cc2ccccc2cn1)N1CCN(C(c2ccccc2)c2ccccc2)CC1 [Compound C468, 4-(diphenylmethyl)piperazinyl 3-isoquinolyl ketone] | 100 to 500 | –
O=C(C#Cc1ccccc1C(F)(F)F)N1CCN(Cc2ccc(Cl)cc2)CC1 [Compound C469, 1-{4-[(4-chlorophenyl)methyl]piperazinyl}-3-[2-(trifluoromethyl)phenyl]prop-2-yn-1-one] | 100 to 500 | –
O=C(c1cc2cc(Cl)ccc2[nH]1)N1CCN(c2ccc(F)cc2)CC1 [Compound C470, 5-chloroindol-2-yl 4-(4-fluorophenyl)piperazinyl ketone] | 100 to 500 | –
O=C(c1ccc(Br)cc1)N1CCN(Cc2ccc(Cl)cc2)CC1 [Compound C472, 4-bromophenyl 4-[(4-chlorophenyl)methyl]piperazinyl ketone] | 100 to 500 | –
COc1ccc(CN2CCN(C(=O)C#Cc3cccc(Cl)c3)CC2)cc1 [Compound C473, 3-(3-chlorophenyl)-1-{4-[(4-methoxyphenyl)methyl]piperazinyl}prop-2-yn-1-one] | 100 to 500 | –
O=C(Nc1cccc(I)c1)N1CCN(C(=O)c2cc3cc(Cl)ccc3[nH]2)CC1 [Compound C474, {4-[(5-chloroindol-2-yl)carbonyl]piperazinyl}-N-(3-iodophenyl)carboxamide] | 100 to 500 | –
O=C(C#Cc1ccccc1C(F)(F)F)N1CCN(Cc2ccc(C(F)(F)F)cc2)CC1 [Compound C475, 3-[2-(trifluoromethyl)phenyl]-1-(4-{[4-(trifluoromethyl)phenyl]methyl}piperazinyl)prop-2-yn-1-one] | 100 to 500 | –
O=C(c1cc2cc(Cl)ccc2[nH]1)N1CCN(c2ccccc2F)CC1 [Compound C476, 5-chloroindol-2-yl 4-(2-fluorophenyl)piperazinyl ketone] | 100 to 500 | –
O=C(Nc1ccc(F)cc1F)N1CCN(C(=O)c2cc3cc(Cl)ccc3[nH]2)CC1 [Compound C477, N-(2,4-difluorophenyl){4-[(5-chloroindol-2-yl)carbonyl]piperazinyl}carboxamide] | 100 to 500 | –
O=C(c1cc2ccccn2n1)N1CCN(C(c2ccccc2)c2ccccc2)CC1 [Compound C478, 4-(diphenylmethyl)piperazinyl 8-hydropyrazolo[1,5-a]pyridin-2-yl ketone] | 100 to 500 | –
O=C(C=Cc1ccc2c(c1)OCO2)N1CCN(C(=O)c2ccc(F)cc2C(F)(F)F)CC1 [Compound C479, 3-(2H-benzo[3,4-d]1,3-dioxolan-5-yl)-1-(4-{[4-fluoro-2-(trifluoromethyl)phenyl]carbonyl}piperazinyl)prop-2-en-1-one] | 100 to 500 | –
Cc1ccccc1/C=C/C(=O)N1CCN(S(=O)(=O)c2ccc(C(C)(C)C)cc2)CC1 [Compound C480, (2E)-1-(4-{[4-(tert-butyl)phenyl]sulfonyl}piperazinyl)-3-(2-methylphenyl)prop-2-en-1-one] | 100 to 500 | –
O=C(/C=C/c1ccc(Br)cc1)N1CCN(Cc2ccc(Cl)cc2)CC1 [Compound D1, (E)-3-(4-bromophenyl)-1-(4-(4-chlorobenzyl)piperazin-1-yl) prop-2-en-1-one] | – | < 100
O=C(/C=C/c1ccc(Cl)c(Cl)c1)N1CCN(Cc2ccc(C(F)(F)F)cc2)CC1 [Compound D3, (2E)-3-(3,4-dichlorophenyl)-1-(4-{[4-(trifluoromethyl)phenyl]methyl}piperazinyl)prop-2-en-1-one] | < 100 | –
Cc1cc(C)c(S(=O)(=O)N2CCN(C(=O)/C=C/c3ccc(Br)cc3)CC2)c(C)c1 [Compound E1, (2E)-3-(4-bromophenyl)-1-{4-[(2,4,6-trimethylphenyl)sulfonyl]piperazinyl} prop-2-en-1-one] | < 100 | –
O=C(/C=C/c1ccc(F)cc1)N1CCN(S(=O)(=O)c2ccc(Br)cc2)CC1 [Compound E2, (2E)-1-{4-[(4-bromophenyl)sulfonyl]piperazinyl}-3-(4-fluorophenyl) prop-2-en-1-one] | < 100 | –
O=C(/C=C/c1ccc(F)cc1)N1CCN(S(=O)(=O)CCc2ccccc2)CC1 [Compound E3, (2E)-3-(4-fluorophenyl)-1-{4-[(2-phenylethyl)sulfonyl]piperazinyl}prop-2-en-1-one] | < 100 | –
